This note sets out measurements from US20220339122A1, “METHODS FOR THE TREATMENT OF DISEASES ASSOCIATED WITH DYSREGULATED ACTIVATION AND RECRUITMENT OF NEUTROPHILS” (Chang Gung University, priority 2021, published 2022).

Data set [1] has as its system human neutrophils. Description: NET photography (immunofluorescence and scanning electron microscopy). Format: cell-based. Conditions: 10 nM PMA; 1-10 μM bletinib. As for the experimental part: Neutrophils (3×10^5 cells/mL) were incubated with DMSO or bletinib for 10 min before being activated with 10 nM PMA for 2 h. Neutrophils were fixed with 4% paraformaldehyde and treated with 5% goat serum blocking buffer for 1 h and then treated with […] anti-MPO (Abcam) and 5 μg/mL anti-NE (Merck Millipore) antibodies for 1 h. These cells were then treated with the Alexa 488 or 568-labelled secondary goat anti-rabbit antibody for another 1 h. Thereafter, the cells were washed with PBS and treated with 1 ng/mL Hoechst 33342 and ProLong Gold antifade reagent (Invitrogen, CA, USA). Immunofluorescence microscopy and scanning electron microscopy were both used to observe the NET formation of activated neutrophils.

The nature of data set [2]: Superoxide scavenging capacity, WST-1 reduction. Format: biochemical. The settings on record: WST-1 reduction at 450 nm. As for the experimental part: (§1) FIG. 1 Bletinib suppressed superoxide anion production in stimulated human neutrophils. Neutrophils (6×10^5 cells/mL) were incubated with 0.1% DMSO or […] bletinib for 5 min before activation with stimuli. Superoxide anion production was induced by (A) fMLF, (B) MMK-1, (C) NaF, or (D) PMA and then measured using ferricytochrome c reduction method. (E) Cytotoxicity was assessed using LDH release. (F) Superoxide scavenging capacity of bletinib was assessed in a xanthine/xanthine oxidase cell-free system. WST-1 reduction was measured through spectrophotometry at 450 nm, with 20 U/mL superoxide dismutase as the positive control.
A general note: Tetrazolium dyes change colour on reduction, which living cells bring about.

In the next data set the test system is Src (Y416). In words: Immunoblotting of neutrophil lysates, Src phosphorylation. Conditions: 0.1 μM fMLF-stimulated neutrophils. Format: cell-based, human. As for the experimental part:
(§2) Neutrophils incubated with bletinib or DMSO at 37° C. for 5 min were stimulated with 0.1 μM fMLF for 30 s. The proteins were separated from neutrophil lysates through electrophoresis (12% sodium dodecyl sulphate-polyacrylamide gel electrophoresis) and then transferred to nitrocellulose membranes. The target proteins were identified through immunoblotting with specific antibodies against p38, p-p38, Akt, p-Akt S473, ERK, p-ERK, INK, p-JNK, Src, p-SFKs Y416, p-Src Y416, Lyn, p-Lyn (Y396), Fgr, p-Fgr (Y412), Hck, p-Hck (Y410), Btk, p-Btk Y223, Vav, and p-Vav (Y174) as well as with HRP-conjugated secondary anti-rabbit antibody (Cell Signaling Technology). The signal intensity was detected and quantified using the UVP BioSpectrum Imaging System (Analytik Jena, USA).

In data set [3] the test system is human neutrophils. In words: Total ROS production, luminol-amplified chemiluminescence. Conditions: 0.1-3 μM bletinib; 0.1 μM fMLF; dose-dependent. It counts as cell-based. As for the experimental part:
Human neutrophils (2×10^6 cells/mL) were preincubated with 6 U mL^−1 horseradish peroxidase (HRP) and 37.5 μM luminol in a 96-well plate at 37° C. for 5 min. Cells were incubated with DMSO or bletinib for 5 min, followed by 0.1 μM fMLF stimulation. Chemiluminescence was then detected and analysed in real time on a 96-well chemiluminometer (Tecan Infinite F200 Pro; Mannedorf, Switzerland).

The subject of data set [4] is human neutrophils. Description: Cytotoxicity assessed using LDH release. Format: cell-based. The method, then: as §1
For orientation: LDH leaks from cells whose membrane has failed.

Another data set concerns the target Src (Homo sapiens, UniProt P12931). In words: Cell-free ADP-Glo kinase assay, Src. It counts as biochemical. The settings on record: 1-10 μM bletinib or 0.1-3 μM PP2; 125 μM ATP; concentration-dependent. As for the experimental part: The kinase activity of SFKs was assessed using an ADP-Glo kinase assay kit (Promega, Fitchburg, USA) according to manufacturer instructions. […] The ADP-Glo reagent was used to end the kinase reaction and remove the remnant ATP; next, the kinase, which converted ADP to ATP, detection reagent was added and incubated for 30 min. Luciferin/luciferase luminescence was determined on an Infinite 200 Pro (Tecan, Switzerland).

The test system of a further data set is BALB/c mice. Description: LPS-induced mortality model in mice. It counts as in vivo. Conditions: 25 mg/Kg bletinib; LPS 5 mg/Kg; monitored 5 days; log-rank p=0.0085. As for the experimental part: For the LPS-induced mortality model, mice were intraperitoneally injected with a single 50-μL dose of LPS (from Escherichia coli O111:B4; 5 mg/kg) or 0.9% saline (vehicle alone group). The mice were monitored for 5 days to determine the survival rate.

The subject of data set [5] is human neutrophils. Description: Extracellular superoxide anion production in stimulated neutrophils (ferricytochrome c reduction). Format: cell-based. As for the experimental part:
Extracellular superoxide anion production in activated neutrophils was assessed through the reduction of ferricytochrome c. After incubating them with Ca^2+ (1 mM) and ferricytochrome c (0.5 mg/mL) at 37° C., the isolated human neutrophils (6×10^5 cells/mL) were then incubated with 0.1% DMSO or 0.3-10 μM bletinib for 5 min. The cells were pretreated with cytochalasin B (CB, 1 or 2 μg/mL) for 3 min and stimulated with fMLF, MMK-1, or sodium fluoride (NaF), or directly activated with phorbol-12-myristate-13-acetate (PMA). The change in absorbance at 550 nm was detected continuously using a spectrophotometer (U-3010, Hitachi, Tokyo, Japan), and superoxide anion levels were calculated using a method described previously (Hwang et al., 2003 Mol. Pharmacol. 64(6), 1419-1427).

The test system of a further data set is Fgr (Y412). Description: Immunoblotting of neutrophil lysates, Fgr phosphorylation. Format: cell-based, human. Conditions: 0.1 μM fMLF-stimulated neutrophils. As for the experimental part: as §2
Background: A western blot detects proteins with antibodies after separation by electrophoresis.

For data set [6], the system named is human neutrophils. Description: Intracellular superoxide/ROS production, DHR123 flow cytometry. It counts as cell-based. The settings on record: 0.1-3 μM bletinib; 0.1 μM fMLF; dose-dependent. As for the experimental part:
Human neutrophils (2.5×10^6 cells/mL) were labelled using 2 μM dihydrorhodamine 123 (DHR123) at 37° C. for 10 min and then incubated with DMSO or bletinib for 5 min and then stimulated with 0.1 μM fMLF/0.5 μg/mL CB for 15 min. The fluorescence intensity was detected through flow cytometry to evaluate intracellular superoxide anion production of human neutrophils.

In the next data set the test system is CD11b (integrin αM). In words: Surface CD11b expression, flow cytometry. Format: cell-based, human. The method, then:
Neutrophils (5×10^5 cells/mL) were incubated with bletinib or DMSO for 5 min and then activated through incubation with 0.1 μM fMLF/1 μg/mL CB for 5 min. After centrifugation at 200×g for 8 min at 4° C., the cells were resuspended in 5% bovine serum albumin with FITC-conjugated antibodies against CD18 or CD11b on ice in the dark for 15 min. The fluorescent intensity was then analysed through fluorescence-activated cell sorting.

The next data set concerns Btk (Y223). In words: Immunoblotting of neutrophil lysates, Btk phosphorylation. Format: cell-based, human. Conditions: 0.1 μM fMLF-stimulated neutrophils. The method, then: as §2
The test system of another data set is Lyn (Y396). In words: Immunoblotting of neutrophil lysates, Lyn phosphorylation. It counts as cell-based, human. The settings on record: 0.1 μM fMLF-stimulated neutrophils. The method, then: as §2

Src, sequence (P12931 whole entry): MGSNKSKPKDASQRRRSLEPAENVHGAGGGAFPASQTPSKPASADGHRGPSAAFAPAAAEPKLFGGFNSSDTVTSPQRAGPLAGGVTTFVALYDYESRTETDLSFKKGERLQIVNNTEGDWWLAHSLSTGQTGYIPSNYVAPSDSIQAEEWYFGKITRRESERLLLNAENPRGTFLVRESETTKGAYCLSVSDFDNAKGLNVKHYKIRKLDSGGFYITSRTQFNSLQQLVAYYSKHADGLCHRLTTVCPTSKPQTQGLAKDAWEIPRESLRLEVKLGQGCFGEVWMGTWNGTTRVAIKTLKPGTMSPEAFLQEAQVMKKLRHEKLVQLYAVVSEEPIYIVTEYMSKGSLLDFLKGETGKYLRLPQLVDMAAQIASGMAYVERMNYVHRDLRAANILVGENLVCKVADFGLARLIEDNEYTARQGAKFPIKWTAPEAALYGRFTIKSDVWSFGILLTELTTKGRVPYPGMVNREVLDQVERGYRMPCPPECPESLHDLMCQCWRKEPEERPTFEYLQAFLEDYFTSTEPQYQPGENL

With `COc1cc(O)cc(CCc2c(Cc3ccc(O)cc3)ccc(O)c2Cc2ccc(O)cc2)c1` [bletinib, 3,3′-dihydroxy-2′,6′-bis(p-hydroxybenzyl)-5-methoxybibenzyl], the “NET formation, immunofluorescent staining and scanning electron microscopy images” value with human neutrophils [1] was “effectively inhibited”. The “ROS scavenging activity in the cell-free xanthine and xanthine oxidase system” value in data set [2] is listed as “did not exhibit”. Moreover, the “phosphorylation of Src (Y416)” value in the data set with Src (Y416) is “significantly inhibited”. In the data set with human neutrophils [3], the “ROS production, luminol-amplified chemiluminescence” value was “significantly suppressed”. The “cytotoxicity (LDH release)” value in the data set with human neutrophils [4] was “did not exhibit cytotoxicity”. Also, on Src, the “kinase activity of Src” value is recorded as “inhibited”. In addition, the “survival time of LPS-primed mice” value in the data set with BALB/c mice is “significantly prolonged”. Besides, in the data set on human neutrophils [5] (Homo sapiens, Neutrophil, fMLF stimulation, bletinib preincubated 5 min, read-out: superoxide anion produced by fMLF-activated human neutrophils, IC50), the IC50 stood at 620 nM. Moreover, in the data set with human neutrophils [5] (MMK-1 stimulation), the “superoxide anion release from neutrophils stimulated by MMK-1” value is given as “attenuated”. Moreover, the “superoxide anion release from neutrophils stimulated by sodium fluoride (NaF)” value with human neutrophils [5] (NaF stimulation) is on record as “attenuated”. In the data set on human neutrophils [5] (PMA stimulation), the “superoxide anion release from neutrophils stimulated by PMA” value is given as “attenuated”. The “phosphorylation of Fgr (Y412)” value in the data set with Fgr (Y412) is “significantly inhibited”. In addition, in the data set on human neutrophils [6], the “intracellular ROS production, flow cytometry (DHR123 MFI)” value is given as “significantly suppressed”. In addition, the “expression of CD11b in fMLF-stimulated human neutrophils” value in the data set with CD11b (integrin αM) (1-10 μM bletinib, 0.1 μM fMLF/CB) is reported as “significantly attenuated”. In the data set on CD11b (integrin αM) (IL-8, data not shown), the “IL-8-induced CD11b expression” value is reported as “restrained”. Also, the “phosphorylation of Btk (Y223)” value in the data set with Btk (Y223) is recorded as “significantly inhibited”. For the same compound, in the data set on Lyn (Y396), the “phosphorylation of Lyn (Y396)” value is “significantly inhibited”.

In general, IC50 refers to the concentration needed to halve the response being measured.
